Data from patent US20060127423A1, “Organic compounds” (priority 1998, published 2006).
≈ marks a conversion by molar mass, not a printed value.

Columns and labels:
[1] = Solubility of epothilone B in various solvent systems; assay type: physicochemical
Description: If not indicated otherwise all solubility data refer to T=22° C.

[2] = Stability of PEG-containing infusion concentrates: degradation products by HPLC; assay type: physicochemical
Description: The stability of aqueous versus nonaqueous polyethyleneglycol infusion concentrates comprising epothilone B at different concentration and various temperatures is determined. Typically, a known amount of epothilone B is dissolved in 1.0 ml of each of the various solvent systems and each solution is sterile filtered and charged to 1 ml white-glass vials with grey rubber stoppers and grey flip-off caps. The stability is analyzed by determining formation of degradation products in each of the infusion concentrates as a function of time and temperature. Each sample is analyzed by HPLC, the sample is prepared by diluting the concentrate with an aqueous medium.

[3] = as above; assay type: physicochemical; conditions: ethanol/water 59:41 (w/w), 5 mg/ml, 2-8° C.
[4] = previously reported; cited from earlier work

C/C(=C\c1csc(C)n1)[C@@H]1C[C@@H]2O[C@]2(C)CCC[C@H](C)[C@H](O)[C@@H](C)C(=O)C(C)(C)[C@@H](O)CC(=O)O1 [epothilone B]
Solubility ([1]; EtOH/H2O (v/v) 10/90, T=22° C.): 1100 µg/mL (≈ 2170 µM)
Solubility ([1]; EtOH/H2O (v/v) 20/80, T=22° C.): 1300 µg/mL (≈ 2560 µM)
Solubility ([1]; EtOH/H2O (v/v) 30/70, T=22° C.): 4100 µg/mL (≈ 8080 µM)
Solubility ([1]; EtOH/H2O (v/v) 50/50, T=22° C.): 27000 µg/mL (≈ 53200 µM)
Solubility ([1]; EtOH/H2O (v/v) 100/0, T=22° C.): >50000 µg/mL
Solubility ([1]; H2O (pH 6.0), 4° C.): 190 µg/mL (≈ 374 µM)
Solubility ([1]; H2O (pH 6.0), T=22° C.): 160 µg/mL (≈ 315 µM)
Solubility ([1]; H2O, 0.9% glucose, T=22° C.): 160 µg/mL (≈ 315 µM)
Solubility ([1]; H2O, 5% glucose, T=22° C.): 160 µg/mL (≈ 315 µM)
Solubility ([1]; H2O, 5% poloxamer 188, T=22° C.): 230 µg/mL (≈ 453 µM)
Solubility ([1]; H2O, 15% glycerin, T=22° C.): 190 µg/mL (≈ 374 µM)
Solubility ([1]; PEG 300/H2O (v/v) 30/70, T=22° C.): 900 µg/mL (≈ 1770 µM)
Solubility ([1]; PEG 300/H2O (v/v) 50/50, T=22° C.): 10000 µg/mL (≈ 19700 µM)
Solubility ([1]; PEG 300/H2O (v/v) 70/30, T=22° C.): 2500 µg/mL (≈ 4920 µM)
Solubility ([1]; PEG 300/H2O (v/v) 100/0, T=22° C.): 12000 µg/mL (≈ 23600 µM)
Solubility ([1]; PEG 400/H2O (v/v) 30/70, T=22° C.): 800 µg/mL (≈ 1580 µM)
Solubility ([1]; PEG 400/H2O (v/v) 50/50, T=22° C.): 11000 µg/mL (≈ 21700 µM)
Solubility ([1]; PEG 400/H2O (v/v) 70/30, T=22° C.): 2300 µg/mL (≈ 4530 µM)
Solubility ([1]; PEG 400/H2O (v/v) 100/0, T=22° C.): 30000 µg/mL (≈ 59100 µM)
Solubility relative to water ([1]; PEG/water, propyleneglycol/water, or EtOH/water mixtures): significantly higher solubility
Solubility ([1]; Phosphate buffer pH 7.4, 4° C.): 190 µg/mL (≈ 374 µM)
Solubility ([1]; Phosphate buffer pH 7.4, T=22° C.): 160 µg/mL (≈ 315 µM)
Solubility ([1]; Propylene glycol/H2O (v/v) 30/70, T=22° C.): 600 µg/mL (≈ 1180 µM)
Solubility ([1]; Propylene glycol/H2O (v/v) 50/50, T=22° C.): 1600 µg/mL (≈ 3150 µM)
Solubility ([1]; Propylene glycol/H2O (v/v) 70/30, T=22° C.): 10400 µg/mL (≈ 20500 µM)
Solubility ([1]; Propylene glycol/H2O (v/v) 100/0, T=22° C.): 26000 µg/mL (≈ 51200 µM)
Solubility in water ([1]; water at neutral pH): about 160 mg/l
Proportion of degradation products ([2]; PEG 300, 1 mg/ml, 3 months, 2-8° C.): <0.1
Proportion of degradation products ([2]; PEG 300/water 90:10 (w/w), 15 mg/ml, 7 months, 2-8° C.): <0.1
Proportion of degradation products ([2]; PEG 300/water 90:10 (w/w), 15 mg/ml, 7 months, 25° C.): 1.0
Proportion of degradation products ([2]; PEG 400, 1 mg/ml, 3 months, 2-8° C.): <0.1
Proportion of degradation products ([2]; PEG 400, 1 mg/ml, 3 months, 25° C.): 0.2
Proportion of degradation products ([2]; PEG 400/water 90:10 (w/w), 1 mg/ml, 3 months, 2-8° C.): <0.1
Proportion of degradation products ([2]; PEG 400/water 90:10 (w/w), 1 mg/ml, 3 months, 25° C.): 0.4
Proportion of degradation products ([3]; 1 month): 0.3
Proportion of degradation products ([3]; 5 months): 0.3
Proportion of degradation products ([3]; initial): <0.1

C/C(=C\c1csc(C)n1)[C@@H]1C[C@@H]2O[C@@H]2CCC[C@H](C)[C@H](O)[C@@H](C)C(=O)C(C)(C)[C@@H](O)CC(=O)O1 [epothilone A]
Aqueous solubility [4]: 940 µg/mL
